Results taken from paper PMC8659091, “Preparation, Characterization, and Bioavailability of Host-Guest Inclusion Complex of Ginsenoside Re with Gamma-Cyclodextrin” (Molecules, 2021).
Like-named read-outs stand apart in the source and are kept apart here.

Legend:
[1] = Phase solubility study of G-Re with CDs in water; assay type: physicochemical; conditions: for stability constant Ks: G-Re with the CD, 1:1 stoichiometry; for △G: Gibbs free energy change of complexation with G-Re, ΔG = −RTln Ks; for Ks: apparent stability constant of G-Re with the CD, Ks=slope/S0(1-slope); for Ks / 1/Slope / Slope: water, 25 °C; for 1/Slope: phase solubility of G-Re; for Slope: slope of phase solubility curve of G-Re vs CD concentration
Description: Phase solubility studies were performed in water in accordance with the method formerly stated by Higuchi and Connors. In brief, an excess amount of G-Re was supplemented into 10 mL Eppendorf tubes with aqueous solution, including various concentrations of α-CD, β-CD, and γ-CD, respectively. Suspensions were vigorously shaken in 25 °C water bath for a week. After equilibrium was reached, the solutions were centrifuged for 5 min at 4000 rpm (1500 g). Meanwhile, a 0.22 μm membrane was used to further filter the supernatant. The filtrate was diluted and HPLC was employed to determine G-Re content.
The phase solubility curves were obtained with the regression of the concentrations of cyclodextrin (mol L^−1) as X-axis and the concentration of G-Re (mol L^−1) as Y-axis. The value of apparent stability constant (Ks) was defined by using the straight-line portion in the phase-solubility to the equation as follows: Ks=slope/S0(1-slope)
In this formula, R can be seen as the general gas constant, which equaled 8.314 J/mol K, and T can be considered as the experimental operating temperature.
(§1) The contents of G-Re from the dissolution sample and phase solubility sample were determined with the help of HPLC on the C18 column (Ascentis® Express, 10 cm × 2.1 mm, 2.6 μm, Sigma, USA), which was installed an Agilent system. This system consisted of a micro degasser, an auto plate sampler, a system binary pump, as well as a thermostatically controlled column apartment at 30 °C. Samples were separated under elution conditions at A (acetonitrile) and B (water) = 19: 81 (v/v). Then, the flow rate was set at 0.5 mL per minute and the injection volume at 5 μL, while the G-Re was detected spectrophotometrically at 205 nm.

[2] = set-up: method as in PMID 22314249, PMID 25197955, PMID 19729261; conditions: after oral administration; cited from earlier work
[3] = Dissolution test in water (rotatory-basket method); assay type: physicochemical; conditions: at 30 min, 37 °C, 100 rpm, 20 mg as Re in 200 mL
Description: G-Re, G-Re-γ-CD physical mixtures, and the G-Re-γ-CD ICs (20 mg as Re) were inserted into a basket in a automatic dissolution testing system (RC806D, Tianjin Tianda Technology Co.,Ltd, Tianjin, China) containing 200 mL of water according to the dissolution method (Chp. 2020 Vol II Addium XC rotatory-basket method). The speed was set at 100 rpm, and the temperature was 37 ± 0.5 °C. Then an equal amount of solution (1 mL) needed to be taken at timepoints of 5, 15, 30, 45, and 60 min; at the same time, 1 mL solution should be replaced. As described below, the determination of G-Re concentration by 205 nm high-performance liquid chromatography was feasible. The G-Re concentration was detected with the same HPLC method applied in the phase solubility test.
as §1

[4] = Pharmacokinetic / bioavailability study after single oral administration, plasma LC-MS/MS; assay type: in vivo, Sprague-Dawley rats; conditions: rats, 100 mg/kg, mean ± SD
Description: The animal studies carried out in this study strictly followed the instructions of the Animal Care and Use Committee of the Changchun university of Chinese medicine (Approval Number: 20190030). Adult male Sprague-Dawley rats (200-220 g; Yisi Experimental Animal Technology Co., Ltd., Changchun, China Approved number: SCXK (JI) 2018-0007) were used for the pharmacokinetic studies. All rats were not allowed to be fed for 24 h before the oral dosing and likewise after the drug administration. Besides, all of them needed to be brought up under a controlled temperature ranging from 20 to 24 °C with a 12-h light/dark cycle. G-Re powder and G-Re-γ-CD complex were suspended in double-distilled water prior to use at 100 mg/kg. […] The blood samples were centrifuged for 10 min at 4000 rpm to harvest the plasma sample (100 μL). Then, the G-Rf (10 μL, 10 ng/mL) was added into each tube rapidly to work as the inherent criterion. After that, a mixed 0.5 mL methanol-acetonitrile (60:40, v/v) should be added for precipitating proteins and extracting interested compounds. The samples were then rotated for 3 min and centrifuged at 15,000×grams for 10 min. By separating and evaporating, the supernatant was obtained on the condition that the nitrogen flow dried gently at 40 °C. Additionally, the residue was reconstituted by vortexing for 1 min with 0.2 mL methanol-water (80:20, v/v). Furthermore, the supernatant was transferred into auto-sampler vials using 5 μL aliquot to inject to the LC-MS/MS system. This method could be carried out by a combination of a Thermo TSQ Endura triple-quadrupole tandem mass spectrometer (Thermo Fisher Inc., Waltham, USA), which is a method named electrospray ionization (ESI), and an Ultimate 3000 LC system which is composed of a vacuum degasser, a quaternary pump, as well as an auto-sampler. Xcalibur 2.2 (SP1.48) software was used to acquire and analyze the data (Thermo Fisher Inc., Waltham, USA). After that, the separation of chemical materials was conducted by using the reverse-phase Accucore C18 analytical column (100 mm × 2.1 mm, 2.6 μm, Thermo Fisher Inc., Waltham, USA). This column was available for the linear gradient elution by using the mobile phase, which consisted of water embracing 0.1% formic acid (A) and acetonitrile (B). Steps are described as follows: 0 min (A 75%-B 25%)-5.0 min (A 70%-B 30%)-8 min (A 68%-B 32%)-9 min (A 64%-B 36%)-16 min (A 63%-B 37%)-16.8 min (A 52%-B 48%)-17.8 min (A 30%-B 70%)-18.8 min (A 10%-B 90%)-20.8 min (A 75%-B 25%)-25 min (A 75%-B 25%). The flow rate should be 0.2 mL per minute, and the volume of injection needed to be 5 μL. This process needed to be performed using the ESI negative ionization and multiple reactions monitoring (MRM) mode. Furthermore, the parameters of spray voltage were 3 kV, the parameters of capillary temperature was 325 °C, and the pressure of nitrogen sheath gas and auxiliary gas were 30 arb and 10 arb. The formic acid adduct [M+HCOO]- is the dominant parent ion of products. […] Finally, the ion transition situations for multiple reactions monitoring (MRM) were m/z 945.5→637.3 and 637.3→475.3 for G-Re, m/z 799.5→637.3 and 637.3→475.3 for IS. After oral administration, non-compartment approaches could be utilized [NT]-Re's t pharmacokinetic parameters. The part under the plasma concentration-time curve increasing from 0 to infinity (AUC0→∞) could be computed by the equation AUC0→∞ = AUCt + Ct/k. In this equation, Ct could be seen as the last concentration which could be quantized, and the calculation of k could be conducted by a straight-line's slope in plasma disappearance's terminal phase. […] Furthermore, with the help of linear trapezoidal approximation, it was easy to calculate the area below the plasma concentration-time curve increasing from 0 to the time of the last quantifiable concentration (AUCt). The calculation of bioavailability value for G-Re's oral doses needed to be conducted according to the AUC's dose-adjusted ratio. […]

[5] = male, Sprague-Dawley, rat, plasma, n = 6

Structure (SMILES)	stability constant Ks [1]	△G [1]	Ks [1]	1/Slope [1]	Slope [1]	inclusion constant relative to that of α-CD ([1]; G-Re as guest)	bioavailability [2]	tmax [2]	dissolution rate [3]	AUC(0-inf) [4, 5]	Cmax [4, 5]	MRT [4, 5]	half-life [4, 5]	tmax [4, 5]	AUC(0-t) ([4]; male, Sprague-Dawley, rat, plasma, n = 6, called AUC0–t, read-out: AUC0–24h)	CLt ([4]; n = 6)	Vdss ([4]; n = 6)
OC[C@H]1O[C@@H]2O[C@H]3[C@H](O)[C@@H](O)[C@@H](O[C@H]4[C@H](O)[C@@H](O)[C@@H](O[C@H]5[C@H](O)[C@@H](O)[C@@H](O[C@H]6[C@H](O)[C@@H](O)[C@@H](O[C@H]7[C@H](O)[C@@H](O)[C@@H](O[C@H]8[C@H](O)[C@@H](O)[C@@H](O[C@H]1[C@H](O)[C@H]2O)O[C@@H]8CO)O[C@@H]7CO)O[C@@H]6CO)O[C@@H]5CO)O[C@@H]4CO)O[C@@H]3CO [β-CD]	612 M⁻¹	-3.7976 kcal/mol	612 M⁻¹	5.16	0.1935	–	–	–	–	–	–	–	–	–	–	–	–
OC[C@H]1O[C@@H]2O[C@H]3[C@H](O)[C@@H](O)[C@@H](O[C@H]4[C@H](O)[C@@H](O)[C@@H](O[C@H]5[C@H](O)[C@@H](O)[C@@H](O[C@H]6[C@H](O)[C@@H](O)[C@@H](O[C@H]7[C@H](O)[C@@H](O)[C@@H](O[C@H]1[C@H](O)[C@H]2O)O[C@@H]7CO)O[C@@H]6CO)O[C@@H]5CO)O[C@@H]4CO)O[C@@H]3CO [α-CD]	22 M⁻¹	-1.831 kcal/mol	22 M⁻¹	116.28	0.0086	–	–	–	–	–	–	–	–	–	–	–	–
OC[C@H]1O[C@@H]2O[C@H]3[C@H](O)[C@@H](O)[C@@H](O[C@H]4[C@H](O)[C@@H](O)[C@@H](O[C@H]5[C@H](O)[C@@H](O)[C@@H](O[C@H]6[C@H](O)[C@@H](O)[C@@H](O[C@H]7[C@H](O)[C@@H](O)[C@@H](O[C@H]8[C@H](O)[C@@H](O)[C@@H](O[C@H]9[C@H](O)[C@@H](O)[C@@H](O[C@H]1[C@H](O)[C@H]2O)O[C@@H]9CO)O[C@@H]8CO)O[C@@H]7CO)O[C@@H]6CO)O[C@@H]5CO)O[C@@H]4CO)O[C@@H]3CO [γ-CD]	–	-5.673 kcal/mol	14410 M⁻¹	1.18	0.8494	655 times	–	–	–	–	–	–	–	–	–	–	–
CC(C)=CCC[C@](C)(O[C@@H]1O[C@H](CO)[C@@H](O)[C@H](O)[C@H]1O)[C@H]1CC[C@]2(C)[C@@H]1[C@H](O)C[C@@H]1[C@@]3(C)CC[C@H](O)C(C)(C)[C@@H]3[C@@H](O[C@@H]3O[C@H](CO)[C@@H](O)[C@H](O)[C@H]3O[C@@H]3O[C@@H](C)[C@H](O)[C@@H](O)[C@H]3O)C[C@]12C [G-Re, Ginsenoside Re]	–	–	–	–	–	–	low	short	6.73%	130 ± 54.1 ng·h/mL	32.2 ± 8.15 ng/mL	5.15 ± 0.968 h	12.2 ± 1.56 h	1.02 ± 0.036 h	113 ± 44.6 ng·h/mL	2.401 ± 0.52 L/h	13.691 ± 3.74 L/kg
